Test results taken from ChEMBL document CHEMBL1140470, “Synthesis and in vitro evaluation of a selective antagonist and the corresponding radioligand for the prostaglandin D2 receptor CRTH2” (Bioorg Med Chem Lett, 2007).

Assays:
[1] = molecular target: T1, Prostaglandin D2 receptor 2 (Homo sapiens, UniProt Q9Y5Y4); assay: Displacement of [3H]PGD2 from human CRTH2 receptor
T1 sequence (Q9Y5Y4 whole entry): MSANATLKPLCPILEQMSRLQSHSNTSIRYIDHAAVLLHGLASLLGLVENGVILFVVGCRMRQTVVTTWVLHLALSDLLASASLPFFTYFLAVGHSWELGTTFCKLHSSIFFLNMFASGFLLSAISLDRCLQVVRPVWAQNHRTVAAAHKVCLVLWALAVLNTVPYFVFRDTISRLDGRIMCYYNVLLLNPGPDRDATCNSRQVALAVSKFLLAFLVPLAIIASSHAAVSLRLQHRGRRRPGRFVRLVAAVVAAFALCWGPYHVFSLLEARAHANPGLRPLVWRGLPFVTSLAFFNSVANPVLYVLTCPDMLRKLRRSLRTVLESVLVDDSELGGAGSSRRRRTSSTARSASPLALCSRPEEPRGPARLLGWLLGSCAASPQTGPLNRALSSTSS

[2] = molecular target: T1, Prostaglandin D2 receptor 2; assay: Antagonist activity at human CRTH2 receptor assessed as inhibition of PGD2-induced signaling by inositol-phosphate assay; format: functional
[3] = molecular target: T2, Prostaglandin D2 receptor 2 (Homo sapiens) (UniProt Q9Y5Y4); assay: (§1) Displacement of [3H]TRQ11238 from human CRTH2 receptor expressed in HEK293 cells; format: cell-based; conditions: tested as the 3H-labelled form
T2 sequence (whole entry): T1 sequence (Q9Y5Y4 whole entry)

[4] = tested on: CRTH2 (Homo sapiens); assay: Selectivity for CRTH2 over DP and TP receptors
[5] = molecular target: T1, Prostaglandin D2 receptor 2; assay: as §1; format: cell-based

| Ki [1] [nM] | IC50 [2] [nM] | Bmax [3] [fmol/mg] | Selectivity ratio [4] | Kd [5] [nM] | SMILES |
| --- | --- | --- | --- | --- | --- |
| 0.631 | 3.98 | 2790 | > 1000 |  | O=C(O)Cn1cc(CCN(Cc2ccccc2)S(=O)(=O)c2ccc(F)cc2)c2ccccc21 |
|  |  |  |  | 1 | [3H]c1cc([3H])cc(CN(CCc2cn(CC(=O)O)c3ccccc23)S(=O)(=O)c2ccc(F)cc2)c1 |
